Measurements taken from US9517985B2, “Method for producing butanol using extractive fermentation” (Butamax Advanced Biofuels LLC, priority 2013, dated 2016).
Like-named read-outs stand apart in the source and are kept apart here.

Experiments:
[1] = Secondary screen for solvent biocompatibility (shake flask; Cellometer viability, glucose, isobutanol); settings: yeast (isobutanologen)
isobutanologen [2] = test: as above; settings: 30° C.; for % Viability: relative to oleyl alcohol
isobutanologen [3] = test: Automated primary screen for solvent biocompatibility (96 well plate, propidium iodide dead-cell fluorescence); type: cell-based
isobutanologen [4] = test: Tertiary screen for solvent biocompatibility (growth of isobutanologen in rich media with solvent, time course); type: cell-based; settings: for isobutanol production: FIG. 11, versus oleyl alcohol control; for glucose consumption: FIG. 12, versus oleyl alcohol control; for ethanol consumption: FIG. 13, versus oleyl alcohol control
isobutanologen [5] = test system: isobutanologen
isobutanologen [6] = test: Three step screening process, overall biocompatibility call
[7] = test system: modified Escherichia coli strain; settings: oleyl alcohol as the organic extractant, Example 6 of US 2009/0305370; cited from earlier work
[8] = propidium iodide signal, 1 h exposure, 1:1 aq:org, room temperature

| Molecule | viability at 4 h [1] | viability at 25 h [1] | Glucose (isobutanologen [2]; 4 Hours) | iBuOH (isobutanologen [2]; 4 Hours) | Glucose (isobutanologen [2]; 25 Hours) | iBuOH (isobutanologen [2]; 25 Hours) | viability at 30 h [1] | Glucose (isobutanologen [2]; 30 Hours) | iBuOH (isobutanologen [2]; 30 Hours) | further results |
| --- | --- | --- | --- | --- | --- | --- | --- | --- | --- | --- |
| CC(C)CC(O)CC(C)C [2,6-dimethylheptan-4-ol] | 42% | 8% | 12.1 g/L | 0.0 g/L | 11.8 g/L | 0.0 g/L | – | – | – | – |
| primary amyl acetate mixed isomers | – | – | – | – | – | – | – | – | – | % Dead (isobutanologen [3]; [8]): 104% |
| CCOC(C)(C)C [ETBE] | – | – | 12.5 g/L | 0.0 g/L | 12.8 g/L | 0.0 g/L | – | – | – | % Viability (isobutanologen [2]; 4 Hours, 1:1): 16%; % Viability (isobutanologen [2]; 25 Hours, 1:1): 4%; % Dead (isobutanologen [3]; [8]): 6% |
| Cc1cccc2cccnc12 [8-methylquinoline] | – | – | – | – | – | – | 47% | 17.5 g/L | 0.0 g/L | – |
| CCCCC(CC)COC(C)=O (stereo not drawn) [2-ethyl hexyl acetate] | – | – | 10.5 g/L | 0.6 g/L | 7.1 g/L | 1.2 g/L | – | – | – | % Viability (isobutanologen [2]; 4 Hours, 1:1): 96%; % Viability (isobutanologen [2]; 25 Hours, 1:1): 42%; % Dead (isobutanologen [3]; [8]): 3% |
| trimethylnonanol | – | – | – | – | – | – | – | 0.0 g/L | 2.1 g/L | isobutanol production (isobutanologen [4]): comparable to oleyl alcohol; glucose consumption (isobutanologen [4]): comparable to oleyl alcohol; ethanol consumption (isobutanologen [4]): comparable to oleyl alcohol; biocompatibility (isobutanologen [5]): biocompatible; % Viability (isobutanologen [2]; 5 Hours): 99%; % Viability (isobutanologen [2]; 30 Hours): 98%; % Dead (isobutanologen [3]; [8]): 3% |
| CCCCCCCCCCCCO [dodecanol] | – | – | – | – | – | – | – | – | – | biocompatibility (isobutanologen [6]): toxic |
| COC(C)(C)C [MTBE] | – | – | 12.7 g/L | 0.0 g/L | 12.9 g/L | 0.2 g/L | – | – | – | % Dead (isobutanologen [3]): 19% |
| CC(C)CC(=O)CC(C)C [2.6-dimethylheptan-4-one] | – | – | 10.9 g/L | 0.6 g/L | 7.9 g/L | 0.9 g/L | – | – | – | % Viability (isobutanologen [2]; 4 Hours, 1:1): 78%; % Viability (isobutanologen [2]; 25 Hours, 1:1): 26%; % Dead (isobutanologen [3]; [8]): 5% |
| CCCCC(CC)CO (stereo not drawn) [2-ethyl-1-hexanol, reference compound] | 14% | 6% | 13.1 g/L | 0.0 g/L | 13.7 g/L | 0.0 g/L | 47% | 16.8 g/L | 0.0 g/L | viability at 5 h [1]: 58% |
| CCCCCCOC(C)=O [n-hexyl acetate] | 18% | 3% | 12.8 g/L | 0.0 g/L | 13.0 g/L | 0.0 g/L | – | – | – | – |
| CCCCOC(=O)CCC [n-butyl n-butyrate] | 48% | 7% | 12.4 g/L | 0.0 g/L | 11.7 g/L | 0.0 g/L | – | – | – | – |
| Cc1cc(C)cc(C)c1 [mesitylene] | 64% | 17% | 12.5 g/L | 0.0 g/L | 12.1 g/L | 0.1 g/L | – | – | – | – |
| CCCCOC(C)=O [n-butyl acetate] | – | – | – | – | – | – | 35% | 16.6 g/L | 0.0 g/L | viability at 5 h [1]: 46% |
| CCCCCCCCCCCC(=O)OC [methyl laurate] | 110% | 94% | 3.9 g/L | 2.1 g/L | 0.0 g/L | 1.6 g/L | – | – | – | isobutanol production (isobutanologen [4]): comparable to oleyl alcohol; glucose consumption (isobutanologen [4]): comparable to oleyl alcohol; ethanol consumption (isobutanologen [4]): comparable to oleyl alcohol |
| CCCCC(CC)COCCO (stereo not drawn) [2-ethylhexylglycol ether] | – | – | – | – | – | – | – | – | – | % Dead (isobutanologen [3]; [8]): 79% |
| CCCCCCCCCCCC=O [dodecanal] | – | – | – | – | – | – | 62% | 0.0 g/L | 0.0 g/L | biocompatibility (isobutanologen [5]): toxic; viability at 5 h [1]: 78% |
| CCCCOCCOCCCC [1,2-dibutoxyethane] | 63% | 8% | 11.9 g/L | 0.4 g/L | 10.7 g/L | 0.4 g/L | – | – | – | – |
| CCCCCCCCCCC [n-undecane] | – | – | – | – | – | – | 100% | 0.0 g/L | 1.9 g/L | isobutanol production (isobutanologen [4]): comparable to oleyl alcohol; glucose consumption (isobutanologen [4]): comparable to oleyl alcohol; ethanol consumption (isobutanologen [4]): comparable to oleyl alcohol; viability at 5 h [1]: 98% |
| CCCCCCCCCCCC [dodecane] | – | – | – | – | – | – | 99% | 0.0 g/L | 1.9 g/L | isobutanol production (isobutanologen [4]): comparable to oleyl alcohol; glucose consumption (isobutanologen [4]): comparable to oleyl alcohol; ethanol consumption (isobutanologen [4]): comparable to oleyl alcohol; biocompatibility (isobutanologen [6]): biocompatible; viability at 5 h [1]: 99% |
| CCCCCCCCCC [n-decane] | 107% | 54% | 5.8 g/L | 1.6 g/L | 0.0 g/L | 2.3 g/L | – | – | – | – |
| CCCCCCCC/C=C\CCCCCCCCO [oleyl alcohol, reference compound] | 100% | 100% | 5.7 g/L | 1.8 g/L | 0.0 g/L | 2.6 g/L | 100% | 0.0 g/L | 2.2 g/L | viability at 5 h [1]: 100%; effective titer for isobutanol [7]: 37 g/L |
| C1CCC2CCCCC2C1 (stereo not drawn) [decalin] | 76% | 36% | 11.2 g/L | 0.4 g/L | 10.3 g/L | 0.5 g/L | – | – | – | – |
| CCCCCCCCOCCCCCCCC [di-n-octyl ether] | – | – | – | – | – | – | 99% | 0.0 g/L | 1.9 g/L | isobutanol production (isobutanologen [4]): comparable to oleyl alcohol; glucose consumption (isobutanologen [4]): comparable to oleyl alcohol; ethanol consumption (isobutanologen [4]): comparable to oleyl alcohol; viability at 5 h [1]: 99% |
| CC(C)CC(C)(C)C [isooctane] | 90% | 31% | 10.8 g/L | 0.5 g/L | 8.5 g/L | 0.8 g/L | – | – | – | – |
| CCCCCCOCCCCCC [di-n-hexyl ether] | 106% | 62% | 8.1 g/L | 1.1 g/L | 0.9 g/L | 1.9 g/L | – | – | – | – |
